Reference: a melting point compilation (Tetko et al.; mined from patent text by program, amines drawn as free bases though some values may be those of a salt)

Structure (SMILES) | melting point
Cn1c(=O)c2c(nc(C=Cc3cccc([N+](=O)[O-])c3)n2C)n(C)c1=O | 306 to 308 °C
O=C1CN(c2ccccc2)C(=O)C1c1ccccc1 (stereo unspecified) | 285 to 287 °C
Cn1c(COc2ccc(CC3SC(=O)NC3=O)cc2)nc2ccc(Oc3ccc(O)cc3)cc21 (stereo unspecified) | 126 to 131 °C
Cc1cc2cc(CN3CCC(CCC(=O)N(C)C)CC3)cnc2cc1NC(=O)c1ccc(-c2ccc(F)cc2)cc1 | 193 to 196 °C
O=C(/C=C/c1ccccc1Cl)/C=C/c1ccccc1Cl | 116 to 118 °C
CC(=O)OCc1c(Br)cccc1Br | 62 to 65 °C
Cn1nc(OCc2ccccc2)cc1C=O | 49.5 to 50.5 °C
CCC(COC)NC(=O)C(Cc1ccc(OCc2ccccc2)cc1)NC(=O)C(CC(C)C)N(C)Cc1ccc(N(C)C)cc1 (stereo unspecified) | 109 to 112 °C
CCOC(=O)c1c(CN(CC)CC)nc2sc3c(c2c1-c1ccc(OC)c(OC)c1)CCNC3 | 72 to 75 °C
C=CCN1CCc2cc(OC)c(O)cc2C1Cc1ccc(OC)c(OC)c1 (single isomer, unassigned; (+)) | 108 to 112 °C
COc1nc(N)nc2c1ncn2C1OC(CO)C(OC(=O)c2ccccc2)C1O (stereo unspecified) | 155 to 157 °C
COc1ccccc1Cc1ccc2nc(N)nc(N)c2c1 | 214 to 215 °C
O=c1[nH]c2c(C(F)(F)F)cccc2c(=O)n1CCCN1CC=C(c2ccc(Cl)cc2)CC1 | 199 to 201 °C
COC(=O)c1ccc(CCC(C)NCC(O)c2cc3ccccc3o2)cc1 (stereo unspecified) | 104 to 108 °C
OCCCOc1cc(-c2ccccc2)cc(-c2ccccc2)n1 | 94 °C
CCOC(=O)c1nc2cc(I)c(I)cc2[nH]c1=O | 275 to 276 °C
Cc1cc(-c2nncc3c(C(C)(C)C)c(OCc4ccccn4)nn23)no1 | 175 to 178 °C
CN1C(C(=O)Nc2cc(Cl)ncn2)=C(O)c2ccc3ccccc3c2S1(=O)=O | 263 °C
Cc1cccc(C)c1N(CCCC(=O)O)C(=O)CCCN(C(=O)c1ccc(Cl)cc1)c1c(C)cccc1C | 129 to 131 °C
CCNC(=O)ON=C(C)C1=CCCN(C)C1 | 74 to 78 °C
Nc1nc(-c2ccccc2)nc2c1ncc(=O)n2C1CC(O)C(CO)O1 (stereo unspecified) | 169 to 172 °C
Cc1ccc(C(=O)Nc2ccccc2O)cc1F | 181 to 183 °C
CNC(=O)ON=C1N=C(C2CCCCC2)C(C)(C)S1 | 158 to 160 °C

Structure (SMILES) | melting point
CCCCCCCCCCCCCCCCCCCCCCNc1cc(N)c([N+](=O)[O-])cc1[N+](=O)[O-] | 108 to 110 °C
CN(C)c1ccc(S(=O)(=O)N2CC(OC(=O)C(C)(C)C)CC2=O)cc1 (stereo unspecified) | 117 to 118 °C
O=C(c1ccc(Cl)cc1)c1ccc(NCC2CO2)cc1 (stereo unspecified) | 128 to 129 °C
O=S(=O)(c1ccccc1)c1c[nH]c2ncccc12 | > 250 °C
ClCc1coc(-c2ccc(Cl)o2)n1 | 107 to 108 °C
NC(=O)CN1C[C@@H]2CCC[C@@H]2C1=O (relative stereo) | 138 to 141 °C
O=C(N[C@H]1CCCNC1=O)c1ccc(F)c(F)c1 | 202 to 204 °C
CCCn1c(=O)n2c(=O)[nH]nc2c2[nH]cnc21 | > 290 °C
Cc1c(-c2cc(CO)c(Cl)cc2F)nn(C)c1C(F)(F)F | 58 °C
Cc1cc(Cl)nnc1NN | 191 to 192 °C
COC(=O)c1sc2c(c1C)c1ccccc1n2C | 166 to 167 °C
CCCCCCC1=CC(O)(C(Br)Br)N(CCCC)C1=O (stereo unspecified) | 85 to 86 °C
O=C(COC(=O)C(O)Cc1ccccc1)Oc1ccccc1 (stereo unspecified) | 98 to 99 °C
CCC(NC(=S)Nc1nc(C)cs1)C(C)C (stereo unspecified) | 164 to 166 °C
CCOC(=O)c1cccc(-c2nc(-c3cc(Cl)sc3Cl)cs2)c1 | 125 to 126 °C
CC(C)(C)c1cnnc(NN)n1 | 117 to 118 °C
NC(=O)NCCNc1n[nH]c2ncnc(Nc3cccc(Cl)c3)c12 | 212 to 214 °C
C[Si](C)(C)OC1c2cc(Br)ccc2-c2ccc(Br)cc2C1O[Si](C)(C)C (stereo unspecified) | 144 to 145 °C
Cc1nc(-c2ccccc2)c(NC(=O)Nc2ccccc2)s1 | 199 to 201 °C
CCOC(=O)c1cc(C)c2nc(CC)[nH]c2n1 | 151 to 153 °C
CN(C)c1ccc2nnc(C(=O)O)c(O)c2c1 | > 330 °C
Cc1oc(-c2ccccc2)nc1CCC(=O)c1ccc(Br)cc1 | 80 to 81 °C
COc1cc(C(=O)N2CC3CC(C2)CN(C(C)C)C3)cc(OC)c1OC | 67.5 to 69.5 °C

Structure (SMILES) | melting point
NC(=O)N1CCCN(NC(=O)c2cc(=O)c(O)c[nH]2)C1=O | 215 to 220 °C
FC(F)(F)c1nc(Cl)c2cc(I)ccc2n1 | 145 to 146 °C
CC(C)(C)c1ccc(S(=O)(=O)Nc2nc(-c3ncccn3)nc(OCCO)c2-c2cccs2)cc1 | 236 to 237 °C
NC(=NO)c1ccc(C(F)(F)F)cn1 | 130 to 133 °C
O=S(=O)(Cl)C(F)(F)C(F)(F)C(F)(F)C(F)(F)C(F)(F)C(F)(F)C(F)(F)C(F)(F)F | 36 °C
O=c1[nH]c2ccc(Cn3ccnc3)cc2[nH]c1=O | > 300 °C
O=C(CC(=O)C1CC1)c1ccncn1 | 81 to 84 °C
O=C(c1ccccc1)N1CCNc2ncc(-c3cccnc3)cc21 | 219 to 220 °C
CCC1(CC)OC(c2ccc(S(C)(=O)=O)cc2)=C(c2cccc(Cl)c2)C1=O | 131 to 132 °C
CS(=O)C1=NS(=O)(=O)c2cc(Cl)ccc2N1 (stereo unspecified) | 260 to 261 °C
Cc1ccc(-c2nc(O)cc(O)n2)cc1 | 314 °C
O=P(O)(O)c1ccc2ccccc2n1 | 200 °C
NCCC1Cc2ccc(C3=NNC(=O)CC3)cc2C1 (stereo unspecified) | 189 to 190 °C
COc1ccc(Nc2ncc3cc(-c4c(Cl)cccc4Cl)c(=O)n(C)c3n2)cc1C | 218 to 220 °C
Cc1ccc(S(=O)(=O)O)cc1C=C1C(=O)C2(C)CCC1C2(C)C (stereo unspecified) | 130 °C
CCOC(=O)c1cn(C)c2cnc3cc(F)c(N4CCN(C(=O)CC(F)(F)F)C(c5ccc(OCc6ccccc6)c(OC)c5)C4)cc3c2c1=O (stereo unspecified) | 154 °C
Cc1ccc(S(=O)(=O)NC(=O)N2C(=O)CN2C(c2ccccc2)c2ccccc2)cc1 | 115 to 123 °C
O=C(NCc1cccc(C(F)(F)F)c1)c1ccc2n1Cc1ccccc1N(C(=O)CSc1ccc(Br)cc1)C2 | 102 °C
CC(=O)N(C(C)=O)c1ncc(C#Cc2cnn3c(C(F)(F)F)cc(-c4ccc(C(F)(F)F)cc4)nc23)cn1 | 253 to 254 °C
C=CCc1c(O)c(C)cc2c1C(C)(C)CC1(CC(C)(C)c3c(cc(C)c(O)c3CC=C)O1)O2 | 95 to 97 °C
COc1ccc(CCN(CCC2CCCCC2)C(=O)CCCCC(N)=O)cc1OC | 158 to 160 °C
COc1cc(-c2cccc(C)c2)cc2oc(=O)c(C)c(C)c12 | 114 °C

Now from value to molecule:

melting point | Structure (SMILES)
195 to 197 °C | CSc1cc2c(cc1C(F)(F)F)N(C(=O)Nc1cccc(C(=O)Nc3cccnc3)c1)CC2
252 to 254 °C | O=C1CCCC2=C1C(c1ccccc1)C1=C(CCCC1)N2 (stereo unspecified)
72 to 75 °C | CCCCC1c2sccc2CCN1CCCOc1ccc([N+](=O)[O-])cc1 (stereo unspecified)
231 °C | CNC(=O)NCCN1CCC(Nc2nc3ccccc3n2Cc2ccc(F)cc2)CC1
> 250 °C | CN1C(=O)CCC(C)(C)c2ccc(NC(=O)c3ccc(C(=O)O)cc3)cc21
153 to 155 °C | Cc1ccc2c(c1)N=C(N1CCN(C)CC1)c1cc(Br)cc3ccn-2c13
179 to 180 °C | COc1ccc(C2=C(c3ccc(S(N)(=O)=O)cc3)CCC2)cc1Cl
85 to 86 °C | Cc1c(C)c2c(c(C)c1N)CC(C)(CN1CCC(OCc3ccccc3)CC1)O2 (stereo unspecified)
158 to 160 °C | COc1ccc(C2=NN(C3CCN(S(=O)(=O)c4ccccc4C#N)CC3)C(=O)CC2)cc1OC
274 to 276 °C | CC1(C)CCSc2cc(C(=O)Nc3ccc(C(=O)O)cc3)ccc21
216 to 218 °C | CC(C)Oc1ccc(N2CCCN(c3cc[nH]c(=S)c3C#N)CC2)cc1
150 to 152 °C | COc1ccc(COc2ccc(CC(=O)O)cc2Cl)cc1
155 to 157 °C | CC(C)S(=O)(=O)NCC(C)(F)c1ccc(-c2ccc(CC#N)cc2)cc1 (stereo unspecified)
242 to 245 °C | CC(O)c1cc2c3ccccc3[nH]c(=O)n2n1 (stereo unspecified)
185 to 187 °C | N#Cc1cc(-c2ccc(Cl)cc2)cnc1Cl
150 °C | CC(C)(C)c1cc(C(O)C#Cc2ccc(C(=O)O)cc2)ccc1N1CCCC1 (stereo unspecified)
94 °C | COC(=O)c1ccc(-c2ccc(C(F)(F)F)cc2)c(COC(C)=O)c1

melting point | Structure (SMILES)
88 to 90 °C | COC(=O)C(C#N)CC(=S)c1ccc(C)cc1 (stereo unspecified)
157 to 158 °C | O=C(Nc1ccccc1)C1=C(N2CCCCC2)COC1=O
202 °C | Cc1nc(-c2ccccc2)nc(N2CCN(c3ccc(O)cc3)CC2)c1C
92 to 93 °C | COC(=O)C1C(C(OC(=S)Oc2ccc(C)cc2)C(C)C)C1(C)C (stereo unspecified)
93 to 95 °C | CN(C)CCCn1ccc(-c2ccc(F)cc2)c1-c1ccncc1
150 to 152 °C | COc1ccc2c(c1)c(C=O)c(C)n2C(=O)c1ccc(Cl)cc1
> 300 °C | COc1ccc(-c2cc3c(N4CCc5ccccc54)ncnc3[nH]2)cc1
147 to 149 °C | COc1cccc(S(=O)(=O)N2c3cc(F)ccc3-c3ccc(F)cc3C2C)c1 (stereo unspecified)
158 to 159 °C | O=C1c2ccccc2C(=O)c2c(NCCN3CCOCC3)ccc(NCCN3CCOCC3)c21
> 300 °C | O=C(O)C1=Cc2cc(Cl)c(Oc3ccc(C(=O)O)cc3)cc2OC1C(F)(F)F (stereo unspecified)
130 to 131 °C | COC[C@H]1CCCN1C(=O)c1cc(-c2ccccc2)c(=O)n2c1-c1ccccc1C2
258 to 262 °C | O=C(O)CN1C(=O)C(=Cc2ccc(-c3ccccc3)cc2)SC1=S
97 to 110 °C | Cn1c(=O)[nH]c(=O)n(-c2cc(Oc3ncc(C(F)(F)F)cc3Cl)ccc2Br)c1=O
129 to 131 °C | C=CCOc1cc(NC(=O)C2=C(C(=O)N(C)C)CCCC2)ccc1Cl
262 to 264 °C | Cc1[nH]c(=O)ccc1-c1ccc(S(C)=O)cc1 (stereo unspecified)
113 to 115 °C | Cc1cc(C(C)c2ccccc2)c(O)c(-n2nc3ccc(Cl)cc3n2)c1 (stereo unspecified)
